Data as given in patent US20170327455A1, “Omefibrates for Treating Dyslipidemia and Cardiovascular Disease” (Jiva Pharma, Inc., priority 2014, published 2017).
Entries after “also recorded” stand apart in the source; their conditions may differ.

How the values were obtained:
[1] = molecular target: T1, PPARα (Homo sapiens, UniProt Q07869); assay: PPARα agonist assay: GAL4-PPAR ligand-binding domain luciferase reporter in live cells; assay type: cell-based; conditions: FIG. 1; for activation of PPARα transcriptional activity (normalized luciferase activity): GAL4-regulated luciferase reporter, live cells
T1 construct: expressed in transfected cells
T1 sequence (Q07869 239-466 limits assumed): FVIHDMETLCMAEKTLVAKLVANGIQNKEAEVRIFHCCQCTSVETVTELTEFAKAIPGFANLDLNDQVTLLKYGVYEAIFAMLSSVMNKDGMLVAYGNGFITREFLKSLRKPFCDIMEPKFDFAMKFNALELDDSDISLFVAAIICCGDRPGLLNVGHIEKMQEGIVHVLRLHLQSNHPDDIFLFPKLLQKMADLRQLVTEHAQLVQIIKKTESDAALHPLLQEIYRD
Description: The activity of JIVA-0018, JIVA-0019 and JIVA-0020 was determined in a PPARα-dependent transcription assay. This assay was carried out in live cells treated with these above compounds, and provides a direct measurement of a compound's ability to activate PPARα. This PPARα activity assay is a standard nuclear receptor ligand activity assay that utilizes the ligand-binding domain of the PPAR receptor fused to a heterologous GAL4 DNA binding domain. The transcriptional read-out is from a GAL4-regulated luciferase reporter. In this assay, compounds that activate the receptor cause an increase in luciferase activity measured in a luminometer.

[2] = molecular target: T2, PPARδ (Homo sapiens, UniProt Q03181); assay: PPARδ Agonist Assay (luciferase reporter); assay type: cell-based; conditions: FIG. 2
T2 construct: expressed in transfected cells
T2 sequence (Q03181 211-439 limits assumed): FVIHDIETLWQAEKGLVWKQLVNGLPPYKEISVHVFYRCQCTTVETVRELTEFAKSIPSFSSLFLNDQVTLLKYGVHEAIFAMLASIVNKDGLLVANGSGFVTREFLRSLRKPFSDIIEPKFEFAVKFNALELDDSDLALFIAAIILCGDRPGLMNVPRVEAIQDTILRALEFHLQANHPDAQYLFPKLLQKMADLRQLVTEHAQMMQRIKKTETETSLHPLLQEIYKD

Molecule | activation of PPARα transcriptional activity (normalized luciferase activity) [1] | activity on PPARδ (normalized luciferase activity) [2] | EC50 ([1]; estimated from the data, read-out: EC50 for activation of PPARα) [µM]
CC/C=C\C/C=C\C/C=C\C/C=C\C/C=C\CCCCC(C)(C)C(=O)O [JIVA-0018, EPA Fibrate or EPA-Fibric Acid] | neither the EPA-fibrate, JIVA-0018 nor the DHA-fibrate, JIVA-0020 stimulated PPARα activity; also recorded: at the base line | at the base line | –
CC/C=C\C/C=C\C/C=C\CCCCCCCCC(C)(C)C(=O)O [JIVA-0019, ALA Fibrate] | strongly activated PPARα; also recorded: potent and selective activator of PPARα | at the base line | –
DHA Fibrate [JIVA-0020] | neither the EPA-fibrate, JIVA-0018 nor the DHA-fibrate, JIVA-0020 stimulated PPARα activity | – | > 20
